# Assay results as given in publication PMC3831706 (British Journal of Pharmacology, 2013).
# Target: T1, 5-HT3A receptor (Homo sapiens, UniProt P46098)
# T1 construct: gene HTR3A
# T1 sequence (P46098 24-478): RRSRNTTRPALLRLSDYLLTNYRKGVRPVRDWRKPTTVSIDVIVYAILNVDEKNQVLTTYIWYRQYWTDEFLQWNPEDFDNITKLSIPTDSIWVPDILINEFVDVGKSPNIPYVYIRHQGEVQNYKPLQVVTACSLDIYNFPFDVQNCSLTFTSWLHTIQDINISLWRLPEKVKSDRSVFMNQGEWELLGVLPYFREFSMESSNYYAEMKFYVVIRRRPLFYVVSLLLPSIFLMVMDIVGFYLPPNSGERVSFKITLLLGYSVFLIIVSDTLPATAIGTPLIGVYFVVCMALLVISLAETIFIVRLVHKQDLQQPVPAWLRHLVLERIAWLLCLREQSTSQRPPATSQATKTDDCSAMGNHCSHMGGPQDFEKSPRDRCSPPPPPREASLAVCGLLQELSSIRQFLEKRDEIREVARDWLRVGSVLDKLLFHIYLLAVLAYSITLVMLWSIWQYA
# Experiment: cell-based
smiles,measurement,value
"O=C1c2cccc3c2[C@H](CCC3)CN1[C@@H]1CN2CCC1CC2 [PAL, palonosetron]",Ki,0.22 ± 0.07 nM
